Assay results reported in patent US10294212B2 (CURADEV PHARMA PRIVATE LTD., priority 2013, dated 2019).
Structures can show the parent of a compound that is named as a salt.

Experiments:
[1] = biological target: Human TDO (hTDO)-transfected CHO-K1 cells (Homo sapiens (Human), UniProt P48775); assay: CHO-K1 cell based TDO assay; conditions: hTDO cellular assay
Experimental: Human TDO (hTDO)-transfected CHO-K1 cells were used to identify test compounds that inhibit TDO activity and reduce Kynurenine production. CHO-K1 cells (ATCC) were cultured in DMEM supplemented with sodium bicarbonate (2.1 g/L), HEPES (4.1 g/L), L-glutamine (2 mM), non-essential amino acid (84 mg/L) and fetal bovine serum (10%) and maintained at 95% humidity and 5% CO2 in a 37° C. incubator. The TDO gene (TDO2) (Accession number NM_005651.1) was purchased from Origene (USA) and stably expressed in CHO-Kl cells using the expression vector pcDNA4/Myc-HisB Hygro (Life Technologies, USA). TDO-expressing clones were identified based on the kynurenine production by the cells. Expanded clones were used for assay as described below. Unless otherwise stated, all materials were procured from Sigma.
hTDO transfected CHO-K1 cells (0.05 million/well) were seeded in a 96-well plate and maintained overnight in DMEM containing 10% FBS (200 μL) at 95% humidity and 5% CO2 in a 37° C. incubator. The following day, cells were washed and incubated with test compounds (typically 31 μM to 10 nM, final volume 150 μL) in Hanks Balanced Salt Solution (HBSS) containing 80 μM L-tryptophan for 2 hours. Supernatant (150 μL) from the cells was treated with 30% TCA ([…]) to precipitate proteins. Supernatants were further incubated at 65° C. for 15 min to convert N-formylkynurenine to kynurenine. KYN in the supernatant was measured by LC/MS/MS using an API4000 mass spectrometer (Applied Biosystems) coupled to a Shimadzu Prominence LC system fitted with a C18 column.
Percent inhibition of the test compounds was determined by measuring the decrease in KYN as compared to the reaction control (DMSO vehicle). IC50 values were calculated using Graph Pad Prism® 5 as described above.

[2] = biological target: Human indoleamine 2,3-dioxygenase1 (hIDO1) (Homo sapiens (Human), UniProt P14902); assay: In-vitro IDO1 enzyme assay (conversion of L-tryptophan to KYN); assay type: biochemical; conditions: read-out: IC50 (IDO1) Enz
Excerpt: Human indoleamine 2,3-dioxygenasel (hIDO1) catalyzes the oxidative cleavage of the pyrrole ring of the indole nucleus of tryptophan to yield N-formylkynurenine which can be converted to kynurenine (KYN) by deformylation. hIDO1 with an N-terminal His tag, expressed and purified from E. coli cells was procured from either Enzo LifeScienccs, NY, USA). Unless otherwise stated, all materials were procured from Sigma Aldrich, Mo., USA.
The assay monitoring the conversion of L-tryptophan to KYN was carried out as follows. hIDO1 (10 nM) was incubated with tryptophan (30 μM) in the presence of ascorbic acid (20 mM), methylene blue (10 μM) and catalase (100 μg/mL) in potassium phosphate buffer (50 mM; pH 6.5) at 37C for 30 min. The reaction was terminated with 30% trichloroacetic acid (TCA) and further incubated at 65C for 15 min to fully convert N-formylkynurenine to KYN. The reaction mixture was then centrifuged to remove sediments and the KYN in the supernatant was estimated by UV-visible absorption spectroscopy at 360 nm using a Waters HPLC system fitted with a C-18 column or by LC/MS/MS. See, Sono, 1980, J. Biol. Chem., 255:1339-1345, which is herein incorporated by reference.
(§1) Percent inhibition at each concentration of test compounds was determined by estimating the decrease in KYN with reference to the reaction control with 1% DMSO vehicle. Data were analyzed using nonlinear regression to generate IC50 values using Graph Pad Prism® 5.

IDO1 in HeLa cells = IDO1 in HeLa cells (Homo sapiens (Human), UniProt P14902); assay: HeLa cell based IDO1 assay (IFNγ-induced, KYN in supernatant)
Experimental: HeLa cells were obtained from ATCC and maintained in DMEM supplemented with sodium bicarbonate (2.1 g/L), HEPES (4.1 g/L), L-glutamine (2 mM), non-essential amino acid (84 mg/L) and fetal bovine serum (10% FBS) and maintained at 95% humidity and 5% CO2 in a 37° C. incubator. Unless otherwise stated, all materials were procured from Sigma. Upon incubation with gamma-interferon (IFNγ ), HeLa cells express IDO1, which catalyzes the formation of N-formyl kynurenine from tryptophan present in growth medium. The assay was performed as follows:
Cells were plated in medium (300 μL) at a density of 0.1 million per well of a 48 well plate and hIDO1 was induced by overnight treatment with IFNγ (50 ng/mL) (Peprotech, USA). The following day, cells were washed to remove IFNγ and were incubated with specific concentrations of test compounds (typically 10 μM to 1 nM, final volume 300 μL) in Hanks Balanced Salt Solution (HBSS) containing 80 μM L-tryptophan. Following incubation, supernatant (150 μL) was transferred to a 96 well plate into which 30%TCA (304) was added and the contents further incubated at 65° C. for 15 min to fully convert N-formylkynurenine to kynurenine. The reaction mixture was then centrifuged to remove sediments and the KYN in the supernatant was estimated by UV-visible absorption spectroscopy at 360 nm using a Waters HPLC system fitted with a C-18 column. (Xiangdong Liu et al. Blood 2010, Vol-117, 3520-30; Sono described above).
as §1

IDO1 in HeLa cells, sequence (P14902 whole entry): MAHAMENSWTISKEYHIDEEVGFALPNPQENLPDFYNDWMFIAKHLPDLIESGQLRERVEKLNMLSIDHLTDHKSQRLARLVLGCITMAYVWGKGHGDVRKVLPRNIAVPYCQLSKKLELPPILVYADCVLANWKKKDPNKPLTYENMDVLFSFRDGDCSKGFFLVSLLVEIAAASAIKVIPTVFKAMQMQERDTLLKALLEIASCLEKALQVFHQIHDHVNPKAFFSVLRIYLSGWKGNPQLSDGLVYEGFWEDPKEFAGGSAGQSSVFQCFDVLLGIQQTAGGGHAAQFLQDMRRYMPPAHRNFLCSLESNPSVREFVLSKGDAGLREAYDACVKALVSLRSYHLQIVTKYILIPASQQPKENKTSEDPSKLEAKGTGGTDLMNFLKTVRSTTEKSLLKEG
Human indoleamine 2,3-dioxygenase1 (hIDO1), sequence (P14902 whole entry): as above
Human TDO (hTDO)-transfected CHO-K1 cells, sequence (P48775 whole entry): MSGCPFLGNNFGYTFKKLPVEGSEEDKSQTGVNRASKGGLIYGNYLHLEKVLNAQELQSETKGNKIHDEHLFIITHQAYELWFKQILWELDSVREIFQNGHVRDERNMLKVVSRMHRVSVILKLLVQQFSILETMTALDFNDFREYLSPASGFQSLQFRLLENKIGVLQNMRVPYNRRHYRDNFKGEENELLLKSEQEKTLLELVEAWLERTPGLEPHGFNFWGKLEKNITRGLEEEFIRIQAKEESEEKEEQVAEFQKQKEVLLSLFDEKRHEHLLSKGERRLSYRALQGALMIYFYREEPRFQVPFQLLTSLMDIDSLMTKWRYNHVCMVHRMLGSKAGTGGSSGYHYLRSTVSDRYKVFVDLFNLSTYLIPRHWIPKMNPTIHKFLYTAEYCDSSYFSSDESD

Molecule	IC50 [1] [nM]	IC50 [2] [nM]	IC50 (IDO1 in HeLa cells) [nM]
Nc1oc2cnccc2c1Nc1cc(Cl)c(F)c(Cl)c1 [Compound 47, N^3-(3,5-Dichloro-4-fluorophenyl)furo[2,3-c]pyridine-2,3-diamine]	500 to 2000	> 1000	200 to 1000
Nc1oc2cnccc2c1Nc1ccc2c(c1)CCCC2 [Compound 71, N^3-(5,6,7,8-Tetrahydronaphthalen-2-yl)furo[2,3-c]pyridine-2,3-diamine]	> 2000	> 1000	< 200
CCOc1cc2c(Nc3ccc(F)c(Cl)c3)c(N)oc2c(-c2ccccc2)n1 [Compound 105, N^3-(3-Chloro-4-fluorophenyl)-5-ethoxy-7-phenylfuro[2,3-c]pyridine-2,3-diamine]	> 2000	200 to 1000	> 1000
Nc1oc2cnccc2c1Nc1cccc(Cl)c1 [Compound 8, N^3-(3-Chlorophenyl)furo[2,3-c]pyridine-2,3-diamine]	500 to 2000	200 to 1000	< 200
Nc1oc2cnccc2c1Nc1cc(Cl)c(F)cc1F [Compound 51, N^3-(5-Chloro-2,4-difluorophenyl)furo[2,3-c]pyridine-2,3-diamine]	> 2000	> 1000	< 200
N#Cc1nccc2c(Nc3ccccc3Cl)c(N)oc12 [Compound 182, 2-Amino-3-((2-chlorophenyl)amino)furo[2,3-c]pyridine-7-carbonitrile]	> 2000	< 200	< 200
CNC(=O)c1cc(-c2nccc3c(Nc4cccc(Cl)c4)c(N)oc23)ccn1 [Compound 225, 4-(2-Amino-3-((3-chlorophenyl)amino)furo[2,3-c]pyridin-7-yl)-N-methylpicolinamide]	500 to 2000	< 200	< 200
C#Cc1cccc(Nc2c(N)oc3c(CC)nccc23)c1 [Compound 96, 7-Ethyl-N^3-(3-ethynylphenyl)furo[2,3-c]pyridine-2,3-diamine]	500 to 2000	< 200	< 200
Cc1ccc2sc(N)c(Nc3ccc(F)c(F)c3)c2c1 [Compound 215, N^3-(3,4-difluorophenyl)-5-methylbenzo[b]thiophene-2,3-diamine]	> 2000	200 to 1000	< 200
Cc1cc(Br)ccc1Nc1c(N)sc2ccccc12 [Compound 237, N^3-(4-Bromo-2-methylphenyl)benzo[b]thiophene-2,3-diamine]	> 2000	> 1000	200 to 1000
COC(=O)c1ccc(-c2nccc3c(Nc4ccc(F)c(Cl)c4)c(N)oc23)cc1 [Compound 152, Methyl 4-(2-amino-3-((3-chloro-4-fluorophenyl)amino)furo[2,3-c]pyridin-7-yl)benzoate]	500 to 2000	< 200	< 200
Nc1oc2cnc(F)cc2c1Nc1ccc(F)c(F)c1 [Compound 216, N^3-(3,4-difluorophenyl)-5-fluorofuro[2,3-c]pyridine-2,3-diamine]	< 500	< 200	< 200
Nc1sc2ccccc2c1Nc1cccc(Br)c1 [Compound 230, N^3-(3-Bromophenyl)benzo[b]thiophene-2,3-diamine]	500 to 2000	< 200	< 200
Nc1oc2cnccc2c1Nc1cccc(F)c1 [Compound 46, N^3-(3-Fluorophenyl)furo[2,3-c]pyridine-2,3-diamine]	500 to 2000	200 to 1000	< 200
C#Cc1cccc(Nc2c(N)oc3c(-c4ccccc4)nccc23)c1 [Compound 92, N^3-(3-Ethynylphenyl)-7-phenylfuro[2,3-c]pyridine-2,3-diamine]		< 200	< 200
Nc1sc2c(Br)cccc2c1Nc1ccc(F)c(Cl)c1 [Compound 210, 7-Bromo-N^3-(3-chloro-4-fluorophenyl)benzo[b]thiophene-2,3-diamine hydrochloride]	500 to 2000	< 200	200 to 1000
CC(C)CNC(=O)c1cc(-c2nccc3c(Nc4ccc(F)c(Cl)c4)c(N)oc23)ccn1 [Compound 252, 4-(2-Amino-3-((3-chloro-4-fluorophenyl)amino)furo[2,3-c]pyridin-7-yl)-N-isobutylpicolinamide]	> 2000	< 200	< 200
2-Amino-3-((3-chloro-4-fluorophenyl)amino)furo[2,3-c]pyridine-7-carbonitrile [Compound 106]	500 to 2000	> 1000	> 1000
Cc1cc(-c2nccc3c(Nc4cccc(Cl)c4)c(N)oc23)ccn1 [Compound 238, N^3-(3-Chlorophenyl)-7-(2-methylpyridin-4-yl)furo[2,3-c]pyridine-2,3-diamine]	500 to 2000	< 200	< 200
Cc1cccc(Nc2c(N)oc3cnccc23)c1 [Compound 48, N^3-(m-tolyl)Furo[2,3-c]pyridine-2,3-diamine]		< 200	< 200
N#Cc1ccc(-c2cccc3c(Nc4ccc(F)c(Cl)c4)c(N)sc23)cc1 [Compound 212, 4-(2-Amino-3-((3-chloro-4-fluorophenyl)amino)benzo[b]thiophen-7-yl)benzonitrile]		< 200	< 200
Nc1oc2c(Cc3ccccc3)nccc2c1Nc1ccc(F)c(Cl)c1 [Compound 86, 7-Benzyl-N^3-(3-chloro-4-fluorophenyl)furo[2,3-c]pyridine-2,3-diamine]		< 200	< 200
Nc1oc2c(-c3ccc(Cl)cc3)nccc2c1Nc1ccc(F)c(Cl)c1 [Compound 91, N^3-(3-Chloro-4-fluorophenyl)-7-(4-chlorophenyl)furo[2,3-c]pyridine-2,3-diamine]		< 200	< 200
Nc1oc2c(-c3ccc(F)c(F)c3)nccc2c1Nc1ccc(F)c(Cl)c1 [Compound 170, N^3-(3-chloro-4-fluorophenyl)-7-(3,4-difluorophenyl)furo[2,3-c]pyridine-2,3-diamine]		< 200	< 200
COCCNC(=O)c1ccc(-c2nccc3c(Nc4ccc(F)c(Cl)c4)c(N)oc23)cc1 [Compound 169, 4-(2-Amino-3-((3-chloro-4-fluorophenyl)amino)furo[2,3-c]pyridin-7-yl)-N-(2-methoxyethyl)benzamide]		< 200	< 200
N#Cc1ccc2c(Nc3ccc(F)c(Cl)c3)c(N)oc2c1 [Compound 112, 2-Amino-3-((3-chloro-4-fluorophenyl)amino)benzofuran-6-carbonitrile]		< 200	< 200
COc1ccc(-c2nccc3c(Nc4ccc(F)c(Cl)c4)c(N)oc23)cc1 [Compound 101, N^3-(3-Chloro-4-fluorophenyl)-7-(4-methoxyphenyl)furo[2,3-c]pyridine-2,3-diamine]		< 200	< 200
